Assay results from PubChem BioAssay AID1963986 (Molecular Pharmacology Branch, DTP, NCI, 2024).

Tested on: 171881-019-R-J1-PDC tumor spheroid viability
Experiment: Anticancer human tumor 171881-019-R-J1-PDC patient-derived invasive breast carcinoma cell line growth inhibition [PI3K]
Details: spheroids with HUVEC and MSC; for IC50: curve of first compound; for viability, T/C: stronger effect = lower value
Outline: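 Viability of mixed-cell spheroids was determined after exposure to pairwise combinations, one partner being inavolisib, alpelisib, duvelisib or copanlisib. Highest tested concentration matched clinical Cmax where known and 10 microM where not, descending in half-log steps.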

[1] = second compound 0.0316 µM, first compound 0.000316 µM
[2] = second compound 0.0316 µM, first compound 0.001 µM
[3] = second compound 0.0316 µM, first compound 0.00316 µM
[4] = second compound 0.0316 µM, first compound 0.01 µM
[5] = second compound 0.0316 µM, first compound 0.0316 µM
[6] = second compound 0.0316 µM, first compound 0.1 µM
[7] = second compound 0.1 µM, first compound 0.000316 µM
[8] = second compound 0.1 µM, first compound 0.001 µM
[9] = second compound 0.1 µM, first compound 0.00316 µM
[10] = second compound 0.1 µM, first compound 0.01 µM
[11] = second compound 0.1 µM, first compound 0.0316 µM
[12] = second compound 0.1 µM, first compound 0.1 µM
[13] = second compound 0.316 µM, first compound 0.000316 µM
[14] = second compound 0.316 µM, first compound 0.001 µM
[15] = second compound 0.316 µM, first compound 0.00316 µM
[16] = second compound 0.316 µM, first compound 0.01 µM
[17] = second compound 0.316 µM, first compound 0.0316 µM
[18] = second compound 0.316 µM, first compound 0.1 µM
[19] = second compound 1 µM, first compound 0.000316 µM
[20] = second compound 1 µM, first compound 0.001 µM
[21] = second compound 1 µM, first compound 0.00316 µM
[22] = second compound 1 µM, first compound 0.01 µM
[23] = second compound 1 µM, first compound 0.0316 µM
[24] = second compound 1 µM, first compound 0.1 µM
[25] = second compound 3.16 µM, first compound 0.000316 µM
[26] = second compound 3.16 µM, first compound 0.001 µM
[27] = second compound 3.16 µM, first compound 0.00316 µM
[28] = second compound 3.16 µM, first compound 0.01 µM
[29] = second compound 3.16 µM, first compound 0.0316 µM
[30] = second compound 3.16 µM, first compound 0.1 µM
[31] = second compound 10 µM, first compound 0.000316 µM
[32] = second compound 10 µM, first compound 0.001 µM
[33] = second compound 10 µM, first compound 0.00316 µM
[34] = second compound 10 µM, first compound 0.01 µM
[35] = second compound 10 µM, first compound 0.0316 µM
[36] = second compound 10 µM, first compound 0.1 µM
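Also: spheroids exposed to compound for 7 days before viability read.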
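For viability, T/C in this document: 100% = DMSO vehicle-treated spheroids.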

`CC(C)n1nc(-c2ccc3oc(N)nc3c2)c2c(N)ncnc21` + CC(Nc1ncnc2nc[nH]c12)c1cc2cccc(Cl)c2c(=O)n1-c1ccccc1 gave an IC50 (second compound 0.0316 µM) of 12.4 nM, an IC50 (second compound 0.1 µM) of 9.88 nM and an IC50 (second compound 0.316 µM) of 10.3 nM. The IC50 (second compound 1 µM) was 8.02 nM, the IC50 (second compound 3.16 µM) was 4.14 nM and the IC50 (second compound 10 µM) was 1.21 nM. The viability, T/C [1] was 89.7%, the viability, T/C [2] was 75.7% and the viability, T/C [3] was 86.5%. It also gave a viability, T/C [4] of 53.3%, a viability, T/C [5] of 22.7% and a viability, T/C [6] of 3.39%. It also gave a viability, T/C [7] of 89.8%, a viability, T/C [8] of 90.5% and a viability, T/C [9] of 71.8%. The viability, T/C [10] was 51.1%, the viability, T/C [11] was 21% and the viability, T/C [12] was 4.54%. For the same compound, the viability, T/C [13] was 96.2%, the viability, T/C [14] was 94.3% and the viability, T/C [15] was 78.2%. For the same compound, the viability, T/C [16] was 50.7%, the viability, T/C [17] was 20.4% and the viability, T/C [18] was 3.31%. It also gave a viability, T/C [19] of 93.1%, a viability, T/C [20] of 89.3% and a viability, T/C [21] of 67.4%. It also gave a viability, T/C [22] of 47.3%, a viability, T/C [23] of 18.5% and a viability, T/C [24] of 3.26%. For the same compound, the viability, T/C [25] was 84.5%, the viability, T/C [26] was 71.8% and the viability, T/C [27] was 53.8%. It also gave a viability, T/C [28] of 37%, a viability, T/C [29] of 13.3% and a viability, T/C [30] of 3.36%. It also gave a viability, T/C [31] of 55.8%, a viability, T/C [32] of 52.1% and a viability, T/C [33] of 40%. The viability, T/C [34] was 22.2%, the viability, T/C [35] was 7.46% and the viability, T/C [36] was 3.13%.
With `CC(C)n1nc(-c2ccc3oc(N)nc3c2)c2c(N)ncnc21` + CC(Nc1ccc2c(c1)OCCn1cc(N3C(=O)OCC3C(F)F)nc1-2)C(N)=O the IC50 (second compound 0.00316 µM) was 9.16 nM, the IC50 (second compound 0.01 µM) was 4.01 nM and the IC50 (second compound 0.0316 µM) was 1.36 nM. It also gave an IC50 (second compound 0.1 µM) of less than 0.316 nM, an IC50 (second compound 0.316 µM) of less than 0.316 nM and an IC50 (second compound 1 µM) of less than 0.316 nM. It also gave a viability, T/C (second compound 0.00316 µM, first compound 0.000316 µM) of 80.2%, a viability, T/C (second compound 0.00316 µM, first compound 0.001 µM) of 76.2% and a viability, T/C (second compound 0.00316 µM, first compound 0.00316 µM) of 69.5%. For the same compound, the viability, T/C (second compound 0.00316 µM, first compound 0.01 µM) was 49.4%, the viability, T/C (second compound 0.00316 µM, first compound 0.0316 µM) was 17.4% and the viability, T/C (second compound 0.00316 µM, first compound 0.1 µM) was 4.49%. It also gave a viability, T/C (second compound 0.01 µM, first compound 0.000316 µM) of 71.7%, a viability, T/C (second compound 0.01 µM, first compound 0.001 µM) of 69.9% and a viability, T/C (second compound 0.01 µM, first compound 0.00316 µM) of 49.7%. It also gave a viability, T/C (second compound 0.01 µM, first compound 0.01 µM) of 38.5%, a viability, T/C (second compound 0.01 µM, first compound 0.0316 µM) of 12.6% and a viability, T/C (second compound 0.01 µM, first compound 0.1 µM) of 4.27%. For the same compound, the viability, T/C [1] was 58.5%, the viability, T/C [2] was 50.9% and the viability, T/C [3] was 42.9%. It also gave a viability, T/C [4] of 25.3%, a viability, T/C [5] of 8.97% and a viability, T/C [6] of 3.7%. The viability, T/C [7] was 43.2%, the viability, T/C [8] was 38.6% and the viability, T/C [9] was 28.8%. For the same compound, the viability, T/C [10] was 13.3%, the viability, T/C [11] was 6.55% and the viability, T/C [12] was 3.2%. The viability, T/C [13] was 26.6%, the viability, T/C [14] was 25.2% and the viability, T/C [15] was 17.7%. The viability, T/C [16] was 8.83%, the viability, T/C [17] was 4.95% and the viability, T/C [18] was 2.96%. For the same compound, the viability, T/C [19] was 18.8%, the viability, T/C [20] was 19.5% and the viability, T/C [21] was 12.8%. The viability, T/C [22] was 6.3%, the viability, T/C [23] was 4.24% and the viability, T/C [24] was 2.61%.
`CC(=O)c1c(C)c2cnc(Nc3ccc(N4CCNCC4)cn3)nc2n(C2CCCC2)c1=O` + Cc1nc(NC(=O)N2CCCC2C(N)=O)sc1-c1ccnc(C(C)(C)C(F)(F)F)c1 was tested, and the IC50 (second compound 0.0316 µM) was greater than 100 nM, the IC50 (second compound 0.1 µM) was greater than 100 nM and the IC50 (second compound 0.316 µM) was greater than 100 nM. It also gave an IC50 (second compound 1 µM) of less than 0.316 nM, an IC50 (second compound 3.16 µM) of less than 0.316 nM and an IC50 (second compound 10 µM) of less than 0.316 nM. It also gave a viability, T/C [1] of 106%, a viability, T/C [2] of 96.3% and a viability, T/C [3] of 91.2%. It also gave a viability, T/C [4] of 101%, a viability, T/C [5] of 105% and a viability, T/C [6] of 88.6%. It also gave a viability, T/C [7] of 78.9%, a viability, T/C [8] of 79% and a viability, T/C [9] of 84.8%. The viability, T/C [10] was 88.9%, the viability, T/C [11] was 88.3% and the viability, T/C [12] was 82.6%. It also gave a viability, T/C [13] of 57.9%, a viability, T/C [14] of 61.5% and a viability, T/C [15] of 54.3%. It also gave a viability, T/C [16] of 63.2%, a viability, T/C [17] of 63.1% and a viability, T/C [18] of 63.2%. It also gave a viability, T/C [19] of 33%, a viability, T/C [20] of 33.7% and a viability, T/C [21] of 37.3%. The viability, T/C [22] was 37.6%, the viability, T/C [23] was 43.8% and the viability, T/C [24] was 38.8%. For the same compound, the viability, T/C [25] was 14.1%, the viability, T/C [26] was 14.3% and the viability, T/C [27] was 16.5%. For the same compound, the viability, T/C [28] was 17.3%, the viability, T/C [29] was 18% and the viability, T/C [30] was 18.4%. It also gave a viability, T/C [31] of 4.32%, a viability, T/C [32] of 3.84% and a viability, T/C [33] of 4.16%. The viability, T/C [34] was 4.4%, the viability, T/C [35] was 5.31% and the viability, T/C [36] was 4.87%.
